Test results taken from article PMC2358886, “Evolution of pharmacologic specificity in the pregnane X receptor” (BMC Evolutionary Biology, 2008).
Where two headings read alike, the source gives them in different places.

Tests used:
human PXR [1] = target: T1, human PXR (Homo sapiens, UniProt O75469); conditions: for hPXR Efficacy: human
T1 sequence (O75469 1-434): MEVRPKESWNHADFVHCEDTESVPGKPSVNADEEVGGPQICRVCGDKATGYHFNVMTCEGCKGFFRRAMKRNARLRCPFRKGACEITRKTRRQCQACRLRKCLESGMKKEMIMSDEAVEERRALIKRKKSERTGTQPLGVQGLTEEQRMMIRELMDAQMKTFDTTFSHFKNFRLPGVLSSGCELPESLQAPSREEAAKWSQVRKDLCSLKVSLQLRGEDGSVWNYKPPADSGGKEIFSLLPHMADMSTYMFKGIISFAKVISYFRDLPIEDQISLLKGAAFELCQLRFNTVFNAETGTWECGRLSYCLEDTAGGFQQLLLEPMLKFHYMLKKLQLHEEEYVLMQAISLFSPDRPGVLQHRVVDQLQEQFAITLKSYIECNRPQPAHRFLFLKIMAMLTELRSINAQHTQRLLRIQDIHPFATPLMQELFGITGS

zebrafish PXR [2] = target: T2, zebrafish PXR (Danio rerio, UniProt A5WYG8); conditions: for zfPXR Activity: -log(EC50), EC50 in molar units, activation of zebrafish PXR
T2 sequence (A5WYG8 144-430): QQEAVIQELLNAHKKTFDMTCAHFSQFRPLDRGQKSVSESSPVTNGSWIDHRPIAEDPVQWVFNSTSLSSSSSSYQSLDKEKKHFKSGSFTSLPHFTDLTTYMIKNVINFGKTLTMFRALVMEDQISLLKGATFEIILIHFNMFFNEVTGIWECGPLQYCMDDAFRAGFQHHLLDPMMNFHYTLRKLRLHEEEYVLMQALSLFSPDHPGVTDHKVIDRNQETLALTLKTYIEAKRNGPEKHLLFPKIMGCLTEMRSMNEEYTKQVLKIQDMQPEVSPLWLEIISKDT

HepG2 cells [3] = tested on: HepG2 cells
human PXR [4] = target: T1, human PXR; assay: PXR activation luciferase reporter assay, human PXR in HepG2-NTCP cells
zebrafish PXR [5] = target: T2, zebrafish PXR; assay: cell-based
rabbit PXR = target: T3, rabbit PXR (Oryctolagus cuniculus, UniProt Q9TU02); assay: PXR activation luciferase reporter assay, rabbit PXR; conditions: for Rabbit PXR efficacy, ε: relative to 50 μM 5α-pregnan-3,20-dione, assigned an efficacy of 1.0
T3 sequence (Q9TU02 1-411): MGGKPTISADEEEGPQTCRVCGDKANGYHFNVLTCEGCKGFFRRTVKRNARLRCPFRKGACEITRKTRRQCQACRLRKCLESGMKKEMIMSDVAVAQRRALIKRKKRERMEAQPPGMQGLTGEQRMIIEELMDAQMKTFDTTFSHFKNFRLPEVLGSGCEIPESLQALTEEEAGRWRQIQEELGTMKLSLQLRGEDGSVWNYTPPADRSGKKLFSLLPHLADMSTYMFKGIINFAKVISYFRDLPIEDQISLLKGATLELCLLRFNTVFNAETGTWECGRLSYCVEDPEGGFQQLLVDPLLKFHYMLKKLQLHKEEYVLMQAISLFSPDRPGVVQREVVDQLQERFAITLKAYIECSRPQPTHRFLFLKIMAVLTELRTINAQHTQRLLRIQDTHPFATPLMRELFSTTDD

rat PXR = target: T4, rat PXR (Rattus norvegicus, UniProt Q9R1A7); conditions: for Rat PXR Activity: -log(EC50), EC50 in molar units
T4 sequence (Q9R1A7 1-431): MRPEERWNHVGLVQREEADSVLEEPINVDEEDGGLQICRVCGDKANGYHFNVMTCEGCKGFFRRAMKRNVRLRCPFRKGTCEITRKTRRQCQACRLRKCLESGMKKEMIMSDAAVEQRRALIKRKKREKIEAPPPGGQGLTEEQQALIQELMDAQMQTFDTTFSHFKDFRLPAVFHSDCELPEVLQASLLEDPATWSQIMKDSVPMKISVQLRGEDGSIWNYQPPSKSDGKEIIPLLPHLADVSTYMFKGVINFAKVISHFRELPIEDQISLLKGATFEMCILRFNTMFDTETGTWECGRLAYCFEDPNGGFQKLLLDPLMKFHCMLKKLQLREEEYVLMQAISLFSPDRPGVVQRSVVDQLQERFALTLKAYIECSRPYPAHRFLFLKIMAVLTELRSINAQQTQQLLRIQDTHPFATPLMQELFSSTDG

mouse PXR = target: T5, mouse PXR (Mus musculus, UniProt O54915); conditions: for Mouse PXR Activity: -log(EC50), EC50 in molar units
T5 sequence (O54915 1-431): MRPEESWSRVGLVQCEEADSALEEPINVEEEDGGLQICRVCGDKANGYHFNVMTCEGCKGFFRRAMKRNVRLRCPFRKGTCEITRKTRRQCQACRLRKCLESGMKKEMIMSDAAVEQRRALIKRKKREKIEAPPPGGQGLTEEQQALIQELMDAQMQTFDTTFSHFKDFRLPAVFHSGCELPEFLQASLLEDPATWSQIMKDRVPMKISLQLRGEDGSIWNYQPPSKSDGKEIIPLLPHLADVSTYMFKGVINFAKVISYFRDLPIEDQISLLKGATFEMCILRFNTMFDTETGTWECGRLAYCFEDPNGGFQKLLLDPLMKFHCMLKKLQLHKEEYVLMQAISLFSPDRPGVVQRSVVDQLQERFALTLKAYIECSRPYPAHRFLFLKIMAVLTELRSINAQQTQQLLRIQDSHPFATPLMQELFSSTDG

chicken PXR = target: T6, chicken PXR (Gallus gallus, UniProt Q9DFH3)
T6 sequence (Q9DFH3 1-391): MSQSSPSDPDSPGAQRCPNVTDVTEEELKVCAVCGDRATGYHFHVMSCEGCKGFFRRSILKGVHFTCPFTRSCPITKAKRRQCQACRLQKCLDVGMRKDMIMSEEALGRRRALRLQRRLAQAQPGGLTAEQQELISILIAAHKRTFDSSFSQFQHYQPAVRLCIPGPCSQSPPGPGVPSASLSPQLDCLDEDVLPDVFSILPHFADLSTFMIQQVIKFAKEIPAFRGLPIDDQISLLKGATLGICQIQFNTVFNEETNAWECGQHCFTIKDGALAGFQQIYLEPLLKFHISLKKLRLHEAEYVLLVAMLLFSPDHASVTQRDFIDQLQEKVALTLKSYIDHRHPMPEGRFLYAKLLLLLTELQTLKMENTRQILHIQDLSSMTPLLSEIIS

HepG2 cells [6] = assay: Toxicity assays in HepG2 cells (MTT and alamar blue reduction); conditions: lowest concentration that produced significant toxicity in the HepG2 cells
[7] = relative to 20 μM 5α-androstan-3α-ol, assigned an efficacy of 1.0
[8] = hPXR Activity, -log(EC50), EC50 in molar units, activation of human PXR
[9] = zfPXR Activity, -log(EC50), EC50 in molar units, activation of zebrafish PXR
[10] = relative to 20 μM pregnenolone 16α-carbonitrile, assigned an efficacy of 1.0
[11] = -log(EC50), EC50 in molar units, activation of human PXR

C[C@]12CCC(=O)C=C1CC[C@@H]1[C@@H]2CC[C@]2(C)C(=O)CC[C@@H]12 [AN7, 4-Androsten-3,17-dione]
hPXR Efficacy (human PXR [1]): 0.59 | zfPXR Efficacy (zebrafish PXR [2]; [7]): 0.14 | Toxicity (HepG2 cells [3]): None | EC50 (human PXR [4]; Human PXR EC50 (concentration class, Figure 2A), class read from box colour against the key of Figure 2): 11 to 50 µM | EC50 (human PXR [4]; [8]): 20.4 µM | EC50 (zebrafish PXR [5]; Zebrafish PXR EC50 (concentration class, Figure 2B), class read from box colour, same key as Figure 2A): < 10 µM | EC50 (zebrafish PXR [5]; [9]): 3.63 µM

C[C@@]12CCC[C@H]1[C@@H]1CC[C@H]3C[C@@H](O)CC[C@]3(C)[C@H]1CC2 [AN20, 5α-Androstan-3β-ol]
hPXR Efficacy (human PXR [1]): 0.43 | zfPXR Efficacy (zebrafish PXR [2]; zebrafish): 1.66 | Toxicity (HepG2 cells [3]; human, 24 hr): 50 µM | EC50 (human PXR [4]; [8]): 0.794 µM | EC50 (zebrafish PXR [5]): 2.69 µM

C[C@@]12CCC[C@H]1[C@@H]1CC[C@@H]3C[C@H](O)CC[C@]3(C)[C@H]1CC2 [AN23, 5β-Androstan-3α-ol]
hPXR Efficacy (human PXR [1]): 1.12 | zfPXR Efficacy (zebrafish PXR [2]; zebrafish): 0.33 | Toxicity (HepG2 cells [3]): None | EC50 (human PXR [4]; [8]): 1.41 µM | EC50 (zebrafish PXR [5]): 2.57 µM

C[C@@]12C=CC[C@H]1[C@@H]1CC=C3C[C@@H](O)CC[C@]3(C)[C@H]1CC2 [AN25, Androst-5,16-dien-3β-ol]
hPXR Activity (human PXR [1]): None | zfPXR Efficacy (zebrafish PXR [2]; zebrafish): 1.50 | Toxicity (HepG2 cells [3]; human, 24 hr): 100 µM | EC50 (zebrafish PXR [5]): 2.51 µM

CC(CCC(=O)NCC(=O)O)C1CCC2C3CCC4CC(O)CCC4(C)C3CC(O)C12C (centres unmarked) [BI009, Glycodeoxycholic acid]
EC50 (rabbit PXR): 15.5 µM | Rabbit PXR efficacy, ε (rabbit PXR): 0.40

C[C@H](CCC(=O)NCCS(=O)(=O)O)[C@H]1CC[C@H]2[C@@H]3CC[C@@H]4C[C@H](O)CC[C@]4(C)[C@H]3C[C@H](O)[C@]12C [BI010, Taurodeoxycholic acid]
EC50 (rabbit PXR): 14.5 µM | Rabbit PXR efficacy, ε (rabbit PXR): 0.15

CC(CCC(=O)O)C1CCC2C3C(O)C(O)C4CC(O)CCC4(C)C3CCC12C (centres unmarked) [BI017, ω-Muricholic acid]
Rat PXR Activity (rat PXR): No effect | Mouse PXR Activity (mouse PXR): No effect

C[C@H](CCC(=O)O)[C@H]1CC[C@H]2[C@@H]3[C@H](O)[C@@H](O)[C@@H]4C[C@H](O)CC[C@]4(C)[C@H]3CC[C@]12C [BI018, α-Muricholic acid]
Rat PXR Activity (rat PXR): 3.95 | Rat PXR efficacy, ε (rat PXR; [10]): 1.31 | Mouse PXR Activity (mouse PXR): 4.59 | Mouse PXR efficacy, ε (mouse PXR; [10]): 2.63

C[C@H](CCC(=O)O)[C@H]1CC[C@H]2[C@@H]3[C@@H](O)[C@@H](O)[C@@H]4C[C@H](O)CC[C@]4(C)[C@H]3CC[C@]12C [BI019, β-Muricholic acid]
Rat PXR Activity (rat PXR): No effect | Mouse PXR Activity (mouse PXR): No effect

C[C@H](CCC(=O)NCC(=O)O)[C@H]1CC[C@H]2[C@@H]3[C@H](O)C[C@@H]4C[C@H](O)CC[C@]4(C)[C@H]3C[C@H](O)[C@]12C [BI021, Glycocholic acid]
Rat PXR Activity (rat PXR): No effect | Chicken PXR Activity (chicken PXR): No effect | Mouse PXR Activity (mouse PXR): No effect

C[C@H](CCC(=O)O)[C@H]1CC[C@H]2[C@@H]3C(=O)C[C@@H]4C[C@H](O)CC[C@]4(C)[C@H]3C[C@H](O)[C@]12C [BI042, 5β-Cholanic acid-3α,12α-diol-7-one]
zfPXR Activity (zebrafish PXR [2]): None | Rabbit PXR Activity (rabbit PXR; -log(EC50), EC50 in molar units): 4.31 | Rabbit PXR efficacy, ε (rabbit PXR): 1.55 | Toxicity (HepG2 cells [6]): None | hPXR Activity (human PXR [4]; [11]): 4.24 | hPXR Efficacy (human PXR [4]; relative to 10 μM rifampicin, assigned an efficacy of 1.0): 0.49

CC(C(=O)O)c1ccc(-c2ccccc2)c(F)c1 (centres unmarked) [MI15, Flurbiprofen]
hPXR Efficacy (human PXR [1]): 1.59 | zfPXR Efficacy (zebrafish PXR [2]; zebrafish): 0.53 | Toxicity (HepG2 cells [3]): None | EC50 (zebrafish PXR [5]): 79.4 µM

NC(=O)N1c2ccccc2CC(=O)c2ccccc21 [MI23, Oxcarbazepine]
zfPXR Efficacy (zebrafish PXR [2]; zebrafish): ~0.30 | Toxicity (HepG2 cells [3]; human, 24 hr): 200 µM | EC50 (human PXR [4]; [8]): 18.2 µM | EC50 (zebrafish PXR [5]): ~20 µM

CCCOC(=O)c1ccc(O)cc1 [MI27, n-Propyl-4-hydroxybenzoate]
zfPXR Efficacy (zebrafish PXR [2]; zebrafish): 0.31 | Toxicity (HepG2 cells [3]; human, 24 hr): 100 µM | EC50 (human PXR [4]; [8]): 30.9 µM | EC50 (zebrafish PXR [5]): 52.5 µM

CC(=O)[C@H]1[C@H](C#N)C[C@H]2[C@@H]3CC=C4C[C@@H](O)CC[C@]4(C)[C@H]3CC[C@@]21C [PR13, 5-Pregnen-16α-cyano-3β-ol-20-one]
Rat PXR efficacy, ε (rat PXR): 6.20 (ε = 1.0) | Rat PXR Activity (rat PXR): 6.20 (ε = 1.0) | zfPXR Activity (zebrafish PXR [2]): None | Toxicity (HepG2 cells [3]): None | hPXR Activity (human PXR [4]; [11]): None | Mouse PXR efficacy, ε (mouse PXR): 6.41 (ε = 1.0) | Mouse PXR Activity (mouse PXR): 6.41 (ε = 1.0)

C#C[C@]1(O)CC[C@H]2[C@@H]3CCC4=CC(=O)CC[C@@H]4[C@H]3CC[C@@]21CC [PR27, 4-Estren-17α-ethynyl-18-homo-17β-ol-3-one]
zfPXR Efficacy (zebrafish PXR [2]; [7]): 0.86 | Toxicity (HepG2 cells [3]): None | EC50 (human PXR [4]; hPXR Activity): 4.27 µM | EC50 (zebrafish PXR [5]; [9]): 1 µM
